Assay results: patent US20200360352A1, “USE OF RIFAMYCIN-NITROIMIDAZOLE COUPLING MOLECULE” (priority 2019, published 2020)
≈ marks a conversion by molar mass, not a printed value. Read-outs that look alike come from different tables or passages of the source. Blank lines part the entries; values can stand above or below the compound they belong to.

Assays:
Assay type in all cases: cell-based
Mycobacterium avium [1] = test: MIC, micro broth dilution with resazurin readout; conditions: read-out: Minimum Inhibitory Concentration (MIC)
Mycobacterium abscessus [2] = test: MIC, micro broth dilution with resazurin readout; conditions: Mycobacteroides abscessus, read-out: Minimum Inhibitory Concentration (MIC)
Mycobacterium kansasii [3] = test: MIC, micro broth dilution with resazurin readout; conditions: read-out: Minimum Inhibitory Concentration (MIC)
[4] = tested on: Mycobacterium intracellulare; test: MIC, micro broth dilution with resazurin readout; conditions: MH Culture Medium, read-out: Minimum Inhibitory Concentration (MIC)
[5] = tested on: Mycobacterium massiliense; test: MIC, micro broth dilution with resazurin readout; conditions: Mycobacteroides abscessus, MH Culture Medium, read-out: Minimum Inhibitory Concentration (MIC)
Mycobacterium fortuitum = test: MIC, micro broth dilution with resazurin readout; conditions: Mycolicibacterium fortuitum, MH Culture Medium, read-out: Minimum Inhibitory Concentration (MIC)
Mycodacterium chelonei = test: MIC, micro broth dilution with resazurin readout; conditions: MH Culture Medium; Chelonei (standard strain); read-out: Minimum Inhibitory Concentration (MIC)
Mycobacterium avium [6] = test: MBC, plating of MIC wells and CFU count; conditions: Mycobacterium avium Smooth, read-out: Minimum Bactericidal Concentration (MBC)
Mycobacterium abscessus [7] = test: MBC, plating of MIC wells and CFU count; conditions: Mycobacteroides abscessus, read-out: Minimum Bactericidal Concentration (MBC)
Mycobacterium kansasii [8] = test: MBC, plating of MIC wells and CFU count; conditions: read-out: Minimum Bactericidal Concentration (MBC)
[9] = MH Culture Medium, Avium (standard strain)
[10] = MH Culture Medium, clinically isolated strain Avium (S31)
[11] = MH Culture Medium, clinically isolated strain Avium (S123)
[12] = MH Culture Medium, clinically isolated strain Avium (S559)
[13] = MH Culture Medium, clinically isolated strain Avium (S568)
[14] = MH Culture Medium, clinically isolated strain Avium (S577)
[15] = MH Culture Medium, clinically isolated strain Avium (S597)
[16] = MH Culture Medium, clinically isolated strain Avium (S602)
[17] = MH Culture Medium, Kansasii (standard strain)
[18] = MH Culture Medium, clinically isolated strain Kansasii (S9)
[19] = MH Culture Medium, clinically isolated strain Kansasii (S199)
[20] = MH Culture Medium, clinically isolated strain Kansasii (S520)
[21] = MH Culture Medium, clinically isolated strain Kansasii (S609)
[22] = Intracellulare (standard strain)
[23] = clinically isolated strain Intracellulare (S90)
[24] = clinically isolated strain Intracellulare (S261)
[25] = clinically isolated strain Intracellulare (S269)
[26] = clinically isolated strain Intracellulare (S290)
[27] = clinically isolated strain Intracellulare (S291)
[28] = clinically isolated strain Intracellulare (S298)
[29] = clinically isolated strain Intracellulare (S442)
[30] = clinically isolated strain Intracellulare (S541)
[31] = clinically isolated strain Intracellulare (S623)
[32] = clinically isolated strain Intracellulare (ZPS)
[33] = clinically isolated strain Massiliense (D10)
[34] = clinically isolated strain Massiliense (D14)
[35] = clinically isolated strain Massiliense (D18)
[36] = clinically isolated strain Fortuitum (S103)
[37] = clinically isolated strain Fortuitum (S111)

MIC (Mycobacterium avium [1]; 7H9 Broth, Mycobacterium avium Smooth): > 64 µg/mL
MIC (Mycobacterium avium [1]; MH Broth, Mycobacterium avium Smooth): > 64 µg/mL
MIC (Mycobacterium avium [1]; [9]): 8 µg/mL (≈ 46.7 µM)
MIC (Mycobacterium avium [1]; [10]): 16 µg/mL (≈ 93.5 µM)
MIC (Mycobacterium avium [1]; [11]): 8 µg/mL (≈ 46.7 µM)
MIC (Mycobacterium avium [1]; [12]): 8 µg/mL (≈ 46.7 µM)
MIC (Mycobacterium avium [1]; [13]): 8 µg/mL (≈ 46.7 µM)
MIC (Mycobacterium avium [1]; [14]): 8 µg/mL (≈ 46.7 µM)
MIC (Mycobacterium avium [1]; [15]): 8 µg/mL (≈ 46.7 µM)
MIC (Mycobacterium avium [1]; [16]): 32 µg/mL (≈ 187 µM)
MIC (Mycobacterium abscessus [2]; 7H9 Broth): > 64 µg/mL
MIC (Mycobacterium abscessus [2]; MH Broth): > 64 µg/mL
MIC (Mycobacterium kansasii [3]; 7H9 Broth): > 64 µg/mL
MIC (Mycobacterium kansasii [3]; MH Broth): > 64 µg/mL
MIC (Mycobacterium kansasii [3]; [17]): 8 µg/mL (≈ 46.7 µM)
MIC (Mycobacterium kansasii [3]; [18]): 8 µg/mL (≈ 46.7 µM)
MIC (Mycobacterium kansasii [3]; [19]): 8 µg/mL (≈ 46.7 µM)
MIC (Mycobacterium kansasii [3]; [20]): 8 µg/mL (≈ 46.7 µM)
MIC (Mycobacterium kansasii [3]; [21]): 8 µg/mL (≈ 46.7 µM)
MIC [4, 22]: 8 µg/mL (≈ 46.7 µM)
MIC [4, 23]: 16 µg/mL (≈ 93.5 µM)
MIC [4, 24]: 16 µg/mL (≈ 93.5 µM)
MIC [4, 25]: 16 µg/mL (≈ 93.5 µM)
MIC [4, 26]: 8 µg/mL (≈ 46.7 µM)
MIC [4, 27]: 8 µg/mL (≈ 46.7 µM)
MIC [4, 28]: 16 µg/mL (≈ 93.5 µM)
MIC [4, 29]: 8 µg/mL (≈ 46.7 µM)
MIC [4, 30]: 16 µg/mL (≈ 93.5 µM)
MIC [4, 31]: 8 µg/mL (≈ 46.7 µM)
MIC [4, 32]: 8 µg/mL (≈ 46.7 µM)
MIC [5, 33]: 16 µg/mL (≈ 93.5 µM)
MIC [5, 34]: 16 µg/mL (≈ 93.5 µM)
MIC [5, 35]: 8 µg/mL (≈ 46.7 µM)
MIC (Mycobacterium fortuitum; Fortuitum (standard strain)): 16 µg/mL (≈ 93.5 µM)
MIC (Mycobacterium fortuitum; [36]): 8 µg/mL (≈ 46.7 µM)
MIC (Mycobacterium fortuitum; [37]): 16 µg/mL (≈ 93.5 µM)
MIC (Mycodacterium chelonei): 16 µg/mL (≈ 93.5 µM)
SMILES: Cc1ncc([N+](=O)[O-])n1CCO [Metronidazole]
MBC (Mycobacterium avium [6]; 7H9 Broth): > 64 µg/mL
MBC (Mycobacterium avium [6]; MH Broth): > 64 µg/mL
MBC (Mycobacterium abscessus [7]; 7H9 Broth): > 64 µg/mL
MBC (Mycobacterium abscessus [7]; MH Broth): > 64 µg/mL
MBC (Mycobacterium kansasii [8]; 7H9 Broth): > 64 µg/mL
MBC (Mycobacterium kansasii [8]; MH Broth): > 64 µg/mL

MIC (Mycobacterium avium [1]; [9]): 1 µg/mL (≈ 2.49 µM)
MIC (Mycobacterium avium [1]; [10]): 8 µg/mL (≈ 19.9 µM)
MIC (Mycobacterium avium [1]; [11]): 0.5 µg/mL (≈ 1.25 µM)
MIC (Mycobacterium avium [1]; [12]): 1 µg/mL (≈ 2.49 µM)
MIC (Mycobacterium avium [1]; [13]): 0.5 µg/mL (≈ 1.25 µM)
MIC (Mycobacterium avium [1]; [14]): 0.5 µg/mL (≈ 1.25 µM)
MIC (Mycobacterium avium [1]; [15]): 2 µg/mL (≈ 4.98 µM)
MIC (Mycobacterium avium [1]; [16]): 4 µg/mL (≈ 9.96 µM)
MIC (Mycobacterium kansasii [3]; [17]): 0.0625 µg/mL (≈ 0.156 µM)
MIC (Mycobacterium kansasii [3]; [18]): 0.0625 µg/mL (≈ 0.156 µM)
MIC (Mycobacterium kansasii [3]; [19]): 0.0625 µg/mL (≈ 0.156 µM)
MIC (Mycobacterium kansasii [3]; [20]): 0.0625 µg/mL (≈ 0.156 µM)
MIC (Mycobacterium kansasii [3]; [21]): 0.0625 µg/mL (≈ 0.156 µM)
MIC [4, 22]: 0.25 µg/mL (≈ 0.623 µM)
MIC [4, 23]: 2 µg/mL (≈ 4.98 µM)
MIC [4, 24]: 2 µg/mL (≈ 4.98 µM)
MIC [4, 25]: 2 µg/mL (≈ 4.98 µM)
MIC [4, 26]: 2 µg/mL (≈ 4.98 µM)
MIC [4, 27]: 1 µg/mL (≈ 2.49 µM)
MIC [4, 28]: 2 µg/mL (≈ 4.98 µM)
MIC [4, 29]: 2 µg/mL (≈ 4.98 µM)
MIC [4, 30]: 64 µg/mL (≈ 159 µM)
MIC [4, 31]: 2 µg/mL (≈ 4.98 µM)
MIC [4, 32]: 1 µg/mL (≈ 2.49 µM)
MIC [5, 33]: 32 µg/mL (≈ 79.7 µM)
MIC [5, 34]: 32 µg/mL (≈ 79.7 µM)
MIC [5, 35]: 8 µg/mL (≈ 19.9 µM)
MIC (Mycobacterium fortuitum; Fortuitum (standard strain)): 1 µg/mL (≈ 2.49 µM)
MIC (Mycobacterium fortuitum; [36]): 1 µg/mL (≈ 2.49 µM)
MIC (Mycobacterium fortuitum; [37]): 0.5 µg/mL (≈ 1.25 µM)
MIC (Mycodacterium chelonei): 4 µg/mL (≈ 9.96 µM)
SMILES: COc1c(N2C[C@@H]3CCCN[C@@H]3C2)c(F)cc2c(=O)c(C(=O)O)cn(C3CC3)c12 [Moxifloxacin]

MIC (Mycobacterium avium [1]; [9]): 0.0625 µg/mL (≈ 0.0738 µM)
MIC (Mycobacterium avium [1]; [10]): 0.0625 µg/mL (≈ 0.0738 µM)
MIC (Mycobacterium avium [1]; [11]): 0.0625 µg/mL (≈ 0.0738 µM)
MIC (Mycobacterium avium [1]; [12]): 0.0625 µg/mL (≈ 0.0738 µM)
MIC (Mycobacterium avium [1]; [13]): 0.0625 µg/mL (≈ 0.0738 µM)
MIC (Mycobacterium avium [1]; [14]): 0.0625 µg/mL (≈ 0.0738 µM)
MIC (Mycobacterium avium [1]; [15]): 0.0625 µg/mL (≈ 0.0738 µM)
MIC (Mycobacterium avium [1]; [16]): 0.0625 µg/mL (≈ 0.0738 µM)
MIC (Mycobacterium kansasii [3]; [17]): 0.0625 µg/mL (≈ 0.0738 µM)
MIC (Mycobacterium kansasii [3]; [18]): 0.0625 µg/mL (≈ 0.0738 µM)
MIC (Mycobacterium kansasii [3]; [19]): 0.0625 µg/mL (≈ 0.0738 µM)
MIC (Mycobacterium kansasii [3]; [20]): 0.0625 µg/mL (≈ 0.0738 µM)
MIC (Mycobacterium kansasii [3]; [21]): 0.0625 µg/mL (≈ 0.0738 µM)
MIC [4, 22]: 0.0625 µg/mL (≈ 0.0738 µM)
MIC [4, 23]: 0.125 µg/mL (≈ 0.148 µM)
MIC [4, 24]: 0.25 µg/mL (≈ 0.295 µM)
MIC [4, 25]: 0.0625 µg/mL (≈ 0.0738 µM)
MIC [4, 26]: 0.0625 µg/mL (≈ 0.0738 µM)
MIC [4, 27]: 0.0625 µg/mL (≈ 0.0738 µM)
MIC [4, 28]: 0.5 µg/mL (≈ 0.59 µM)
MIC [4, 29]: 0.0625 µg/mL (≈ 0.0738 µM)
MIC [4, 30]: 0.125 µg/mL (≈ 0.148 µM)
MIC [4, 31]: 0.25 µg/mL (≈ 0.295 µM)
MIC [4, 32]: 0.0625 µg/mL (≈ 0.0738 µM)
MIC [5, 33]: > 64 µg/mL
MIC [5, 34]: 64 µg/mL (≈ 75.6 µM)
MIC [5, 35]: 64 µg/mL (≈ 75.6 µM)
MIC (Mycobacterium fortuitum; Fortuitum (standard strain)): 4 µg/mL (≈ 4.72 µM)
MIC (Mycobacterium fortuitum; [36]): 32 µg/mL (≈ 37.8 µM)
MIC (Mycobacterium fortuitum; [37]): 4 µg/mL (≈ 4.72 µM)
MIC (Mycodacterium chelonei): 64 µg/mL (≈ 75.6 µM)
SMILES: CO[C@H]1/C=C/O[C@@]2(C)Oc3c(C)c(O)c4c(c3C2=O)C2=NC3(CCN(CC(C)C)CC3)NC2=C(NC(=O)/C(C)=C\C=C\[C@H](C)[C@H](O)[C@@H](C)[C@@H](O)[C@@H](C)[C@H](OC(C)=O)[C@@H]1C)C4=O [Rifabutin]
